Converted amounts (≈) assume the structure as drawn.
Legend:
S.aureus ATCC 29213 = format: cell-based, Staphylococcus aureus; settings: ATCC 29213, 24 h
Procedure, shortened: (§1)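 Testing follows CLSI macrobroth dilution with an inoculum of approximately 5 × 10^5 CFU/mL in cation-adjusted Mueller-Hinton broth. After 24 hr at 37°C the MIC was recorded, without replicate runs.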

MRSA ATCC 33592 = format: cell-based, methicillin-resistant S. aureus; settings: ATCC 33592, 24 h
Procedure, shortened: as §1

MSSE 81388 CANWARD 2008 = format: cell-based, methicillin-susceptible S. epidermidis; settings: 24 h
Procedure, shortened: as §1

MRSE CAN-ICU 61589 = format: cell-based, methicillin-resistant S. epidermidis; settings: CAN-ICU 61589, 24 h
Procedure, shortened: as §1

E. faecalis ATCC 29212 = format: cell-based, Enterococcus faecalis; settings: ATCC 29212, 24 h
Procedure, shortened: as §1

S.pneumoniae ATCC 49619 = format: cell-based, Streptococcus pneumoniae; settings: ATCC 49619, 24 h
Procedure, shortened: as §1

P.aeruginosa ATCC 27853 = format: cell-based, Pseudomonas aeruginosa; settings: ATCC 27853, 24 h
Procedure, shortened: as §1

[1] = tested on: P.aeruginosa CAN-ICU 62308; format: cell-based, Pseudomonas aeruginosa; settings: CAN-ICU 62308, 24 h
Procedure, shortened: as §1

[2] = tested on: S. maltophilia CAN-ICU 62584; format: cell-based, Stenotrophomonas maltophilia; settings: CAN-ICU 62584, 24 h
Procedure, shortened: as §1

[3] = tested on: A. baumannii CAN-ICU 63169; format: cell-based, Acinetobacter baumannii; settings: CAN-ICU 63169, 24 h
Procedure, shortened: as §1

K.pneumoniae ATCC 13883 = format: cell-based, Klebsiella pneumoniae; settings: ATCC 13883, 24 h
Procedure, shortened: as §1

ovine erythrocytes = test: Haemolytic assay; format: cell-based, sheep; settings: ovine erythrocytes in Tris buffered saline, 30 minutes, absorbance of supernatant at 540 nm
Procedure, shortened: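 Washed sheep erythrocytes in Tris-buffered saline exposed to compound (50 μg/mL–1 mg/mL; final 4.08 x 10^8 cells/mL) for 30 min. After centrifugation, supernatant absorbance at 540 nm gave % haemolysis; 0.5% ammonium chloride as positive control.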

E.coli ATCC 25922 = format: cell-based, Escherichia coli; settings: ATCC 25922, 24 h
Procedure, shortened: as §1

E.coli CAN-ICU 61714 = format: cell-based, Escherichia coli; settings: CAN-ICU 61714, 24 h
Procedure, shortened: as §1

E.coli CAN-ICU 63074 = format: cell-based, Escherichia coli; settings: CAN-ICU 63074, 24 h
Procedure, shortened: as §1

E. faecium ATCC 27270 = format: cell-based; settings: ATCC 27270, 24 h
Procedure, shortened: as §1

S. epidermidis = format: cell-based; settings: 24 h
Procedure, shortened: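 Read-out is the MIC after 24 hr incubation at 37°C in ambient air, determined by CLSI macrobroth dilution in cation-adjusted Mueller-Hinton broth with an inoculum near 5 × 10^5 CFU/mL; tested once.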

CCCCCCCCCCCCCCCCCCCC(=O)N(CCCCN)CC(=O)N(CCCCN)CC(=O)N(CCCCN)CC(N)=O [C20-NlysNlysNlys]
MIC S.aureus (S.aureus ATCC 29213): 16 µg/mL (≈ 23 µM)
MIC S.aureus in the presence of 4% bovine serum albumin (S.aureus ATCC 29213): 128 µg/mL
MIC MRSA (MRSA ATCC 33592): 16 µg/mL (≈ 23 µM)
MIC MRSA in the presence of 4% bovine serum albumin (MRSA ATCC 33592): 256 µg/mL
MIC MSSE (MSSE 81388 CANWARD 2008): 8 µg/mL (≈ 11.5 µM)
MIC MSSE in the presence of 4% bovine serum albumin (MSSE 81388 CANWARD 2008): 128 µg/mL
MIC MRSE (MRSE CAN-ICU 61589): 8 µg/mL (≈ 11.5 µM)
MIC MRSE in the presence of 4% bovine serum albumin (MRSE CAN-ICU 61589): 128 µg/mL
MIC E. faecalis (E. faecalis ATCC 29212): 16 µg/mL (≈ 23 µM)
MIC E. faecalis in the presence of 4% bovine serum albumin (E. faecalis ATCC 29212): 256 µg/mL
MIC S.pneumoniae (S.pneumoniae ATCC 49619): 64 µg/mL (≈ 91.9 µM)
MIC S.pneumoniae in the presence of 4% bovine serum albumin (S.pneumoniae ATCC 49619): 512 µg/mL
MIC P.aeruginosa (P.aeruginosa ATCC 27853): 128 µg/mL (≈ 184 µM)
MIC P.aeruginosa in the presence of 4% bovine serum albumin (P.aeruginosa ATCC 27853): 512 µg/mL
MIC P.aeruginosa [1]: 64 µg/mL (≈ 91.9 µM)
MIC P.aeruginosa in the presence of 4% bovine serum albumin [1]: 512 µg/mL
MIC S. maltophilia [2]: 64 µg/mL (≈ 91.9 µM)
MIC S. maltophilia in the presence of 4% bovine serum albumin [2]: 512 µg/mL
MIC A. baumannii [3]: 64 µg/mL (≈ 91.9 µM)
MIC A. baumannii in the presence of 4% bovine serum albumin [3]: 512 µg/mL
MIC K.pneumoniae (K.pneumoniae ATCC 13883): 64 µg/mL (≈ 91.9 µM)
MIC K.pneumoniae in the presence of 4% bovine serum albumin (K.pneumoniae ATCC 13883): 256 µg/mL
Percent haemolysis at 100µg/mL of compound (ovine erythrocytes): 68.29%
MIC E.coli (E.coli ATCC 25922): 32 µg/mL (≈ 46 µM)
MIC E.coli in the presence of 4% bovine serum albumin (E.coli ATCC 25922): 256 µg/mL
MIC E.coli (E.coli CAN-ICU 61714): 32 µg/mL (≈ 46 µM)
MIC E.coli in the presence of 4% bovine serum albumin (E.coli CAN-ICU 61714): 256 µg/mL
MIC E.coli (E.coli CAN-ICU 63074): 32 µg/mL (≈ 46 µM)
MIC E.coli in the presence of 4% bovine serum albumin (E.coli CAN-ICU 63074): 256 µg/mL
MIC E. faecium (E. faecium ATCC 27270): 16 µg/mL (≈ 23 µM)
MIC E. faecium in the presence of 4% bovine serum albumin (E. faecium ATCC 27270): 256 µg/mL
MIC against S. epidermidis with BSA (S. epidermidis): 128 µg/mL
